Earlier results in patent US20240408056A1, “METHODS FOR REPAIRING NERVE DAMAGE USING PKC ACTIVATING THERAPEUTIC AGENTS” (priority 2023, published 2024).
Like-named read-outs stand apart in the source and are kept apart here.

Target: PKC
[1] = A-ring bryologs, read-out: affinity for PKC

Compound | Ki [1] [nM] | Ki (Table 1, Bryologs, read-out: PKC Affinity) [nM] | affinity for PKC (in words) (compared with Bryostatin-1 and the other bryologs)
CCCCCCCC(=O)OC1C(=CC(=O)OC)CC2CC(CO)OC(=O)CC(O)CCOC(CCCc3ccc(Br)cc3)CC3CCOC(C=CC(C)(C)C1(O)O2)O3 (centres unmarked) [bryolog 5] | 1.9 | – | –
CCCCCCCC(=O)OC1C(=CC(=O)OC)CC2CC(CO)OC(=O)CC(O)CCOC(C(C)(C)C)CC3CCOC(C=CC(C)(C)C1(O)O2)O3 (centres unmarked) [bryolog 3] | 6.5 | – | –
CCCCCCCC(=O)OC1C(=CC(=O)OC)CC2CC(CO)OC(=O)CC(O)CC3CCCC(CC4CCOC(C=CC(C)(C)C1(O)O2)O4)O3 (centres unmarked) [Analog 1] | – | 0.25 | highest affinity for PKC
CCCCCCCC(=O)OC1C(=CC(=O)OC)CC2CC(CO)OC(=O)CC(O)CCOC(c3ccccc3)CC3CCOC(C=CC(C)(C)C1(O)O2)O3 (centres unmarked) [bryolog 4] | 2.3 | – | –
